For assay [1], the target named is T1, E. coli Undecaprenyldiphosphatsynthase (EcUPPS) (Escherichia coli, UniProt P60472).
T1 construct: made in house; host or cells: E. coli
T1 sequence (P60472 1-253): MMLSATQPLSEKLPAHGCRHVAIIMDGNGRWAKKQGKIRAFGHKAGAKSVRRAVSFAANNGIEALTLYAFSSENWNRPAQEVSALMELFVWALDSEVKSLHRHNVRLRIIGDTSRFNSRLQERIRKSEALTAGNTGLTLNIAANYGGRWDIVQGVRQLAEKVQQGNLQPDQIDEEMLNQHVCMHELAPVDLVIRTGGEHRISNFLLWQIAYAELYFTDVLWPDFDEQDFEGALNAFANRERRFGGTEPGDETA
The assay can be described thus: MTP phosphate detection assay (diphosphate release, BIOMOL Green), substrate kinetics. Type of assay: biochemical. The conditions noted are these: elongation substrate varied, starter FPP 10 µM. The protocol: Cis-Prenyltransferasen entlassen während der Reaktion Diphosphat nach jedem Kondensationsschritt. Dies ist der Ansatzpunkt, der gewählt wurde, um unabhängig von der Art des Produktes den Grundumsatz zu detektieren. […] Die Dreifachbestimmungen der Enzymreaktionen wurden mit 100 µL BIOMOL Green™ Detektionsreagenz gestoppt und nach weiteren 20 min in einem Mikrotiterplattenspektrophotometer bei 620 nm gemessen. Zur Kontrolle erfolgte für jede Substratkonzentration eine Messung mit denaturiertem Enzym zu den unterschiedlichen Zeitpunkten um Selbsthydrolyse der Substrate zu berücksichtigen. Zur Quantifizierung wurde eine Pi-Standardkurve in Doppelbestimmung mitgeführt. Die Verdünnung des KPi-Standards erfolgte in Assaypuffer, wurde mit 100 µL BIOMOL Green™ Detektionsreagenz nach Ablauf der Enzymreaktion in den Test-Wells detektiert und zeitgleich nach weiteren 20 min bei 620 nm gemessen. Eine lineare Beziehung zwischen A620 nm und Pi-Konzentration ermöglichte eine Quantifizierung zwischen 80 µM-0 µM Pi.
Die Bestimmung der FPP-Kinetiken der EcUPPS sowie der ThkCPT erfolgte unter analogen Bedingungen der Bestimmung von IPP. […] Die Enzymreaktion wurde nach 60 s, 120 s, 180 s, 300 s, 600 s, 900 s oder 1200 s durch Zugabe von 100 µL BIOMOL Green™ Detektionsreagenz gestoppt und wie oben beschrieben gemessen.
Die Assaybedingungen wurden wie in Beispiel 3 beschriebenen gewählt. […] Variation von 500 - 0 µM im Fall der Elongationssubstrate erfolgte konstant mit 10 µM FPP (jedes Homoallyldiphosphat möglich).
Zur Berechnung der Umsatzraten in nkat·mg^-1 wurde verwendet: ν0 = ((A620-ABlank)⋅1000)/(2⋅m⋅t⋅[E]) [formula] v0 Anfangsgeschwindigkeit der Diphosphathydrolyse (nkat·mg^-1) A620 Absorption bei 620 nm ABlank Absorption der Kontrolle bei 620 nm m Anstieg der Phosphatstandardkurve (µM^-1) t Dauer der Enzymreaktion (s) [E] Enzymkonzentration (mg·L^-1)
Die Auswertung erfolgte durch nicht-lineare Regression nach der Hill-Gleichung mit Sigma-Plot 11. […] Substratkonzentration (µM) h Hill-Koeffizient

The target of the next assay is T2, ThkCPT (Thermococcus kodakarensis, UniProt Q5JGE1).
T2 construct: made in house; host or cells: E. coli
T2 sequence (Q5JGE1 1-264): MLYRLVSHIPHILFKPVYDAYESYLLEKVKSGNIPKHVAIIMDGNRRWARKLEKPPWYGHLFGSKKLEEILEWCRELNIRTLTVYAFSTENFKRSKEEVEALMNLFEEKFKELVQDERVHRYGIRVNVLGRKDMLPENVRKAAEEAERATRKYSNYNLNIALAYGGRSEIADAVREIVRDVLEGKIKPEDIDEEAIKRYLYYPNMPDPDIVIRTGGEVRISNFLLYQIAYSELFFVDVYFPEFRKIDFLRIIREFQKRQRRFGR
The experiment in a line: Product chain length by HPLC with fluorescent starter substrate 110. The following applies: 10 µM ThkCPT, 110 as starter substrate, room temperature 25°C. It is filed as biochemical, Thermococcus kodakaraensis. The protocol: Zur Bestimmung der Produktkettenlängen wurden 500 µL Enzymassays in MS-Gläschen durchgeführt. […] Die Extraktion der Polyprenyldiphosphate erfolgte mit 500 µL 1-Butanol. Die Butanolphase wurde in ein neues Glas überführt und unter Stickstoffstrom von dem Lösungsmittel befreit. Die Hydrolyse der Diphosphate zum Polyprenol erfolgte durch Zugabe von 200 µL Hydrolysepuffer (20% Isopropanol, 4,4 Units/mL saure Phophatase aus Kartoffeln, 0,1 % Triton X-100, 50 mM Natriumacetat (pH 4,7)) und wurde über Nacht bei 37 °C inkubiert. Die Polyprenole wurden mit 500 µL nHexan extrahiert und zur weiteren DC- oder HPLC-Analyse vorbereitet. Für DC-Experimente und LC/ESI-MS-Analysen wurde die nHexan-Phase in ein neues Glas überführt, das Lösungsmittel abgedampft und die Produkte erneut in 100 µL nHexan resuspendiert um eine Aufkonzentrierung zu erreichen. Für HPLC-Analysen mit 110 ((2E,6E)-8-O-(N-methyl-2-aminobenzoyl)-3,7-dimethyl-2,6-octandien-1-diphosphat) als Startersubstrat wurde die nHexan-Phase 1:3 verdünnt in das HPLC-System mittels Autosampler injiziert.
Die HPLC-Analyse der Polyprenole erfolgte an einer Anlage von Merck HITACHI D-7000, wobei als stationäre Phase eine YMC-ODS AQ (150 x 4 mm, 5 µm; YMC Europe GmbH, Dinslaken) Säule verwendet wurde. Die Elution erfolgte mit 1 mL·min^-1 und die Detektion bei 210 nm mit einem UV-VIS Detektor: Merck HITACHI L-7420. Das Injektionsvolumen betrug dabei 5 µL. Die mobile Phase setzte sich aus Laufmittel A (MeOH/H2O/Isopropanol 12:1:8 (v/v/v)) und Laufmittel B (nHexan/Isopropanol 7:3 (v/v)) zusammen. Die Probenaufgabe erfolgte mittels Autosampler (Merck HITACHI L-7250). [drawing 35]
Zur selektiven und vor allem sensitiven Detektion von Polyprenolen kann ein alternatives, fluoreszierendes Startersubstrat verwendet werden, (2E,6E)-8-O-(N-methyl-2-aminobenzoyl)-3,7-dimethyl-2,6-octandien-1-diphosphat (110). Die Analyse erfolgte wie in Beispiel 6 beschrieben. Dabei wurden 3 µL pro Probe injiziert und die Detektion erfolgte über Fluoreszenz: Ex 352 nm / Em 420 nm wobei das Gerät Merck HITACHI L-7480 als Fluoreszenzdetektor verwendet wurde. […]

In the case of `C=C(Cl)CCOP(=O)(O)OP(=O)(O)O` [Cl-BPP, 3-Chlor-3-Butenyldiphosphat], the kcat in assay [1] was 0,0009 s^-1. Besides, the “Kondensationen (Reaktionsprodukte)” value on ThkCPT is on record as “mehr als zwei Kondensationen”.

These data come from patent publication EP2848693A1, “Concatenation of halogenated alkenyl diphosphate derivatives” (LANXESS Deutschland GmbH, priority 2013, dated 2015).
